From publication PMC8426238, “Synthesis and preclinical evaluation of [^11C]MTP38 as a novel PET ligand for phosphodiesterase 7 in the brain” (European Journal of Nuclear Medicine and Molecular Imaging, 2021)

Assays:
Assay in all cases: off-target screen panel
Format in all cases: binding
[1] = molecular target: T1, Adenosine A3 (Homo sapiens, UniProt P0DMS8); settings: Human recombinant, [^125I]AB-MECA
T1 construct: purchased Eurofins Panlabs Discovery Services (Taiwan)

[2] = molecular target: T2, Adrenergic α1A (Rattus norvegicus, UniProt P43140); settings: Rat submaxillary gland, [^3H]Prazosin
T2 construct: purchased Eurofins Panlabs Discovery Services (Taiwan)

[3] = molecular target: T3, Adrenergic α1D (Homo sapiens, UniProt P25100); settings: Human recombinant, [^3H]Prazosin
T3 construct: purchased Eurofins Panlabs Discovery Services (Taiwan)

[4] = molecular target: T4, Adrenergic α2A (Homo sapiens, UniProt P08913); settings: Human recombinant, [^3H]Rauwolscine
T4 construct: purchased Eurofins Panlabs Discovery Services (Taiwan)

[5] = molecular target: T5, Androgen (Testosterone) (Homo sapiens, UniProt P10275); settings: Human LNCaP clone, [^3H]Methyltrienolone
T5 construct: purchased Eurofins Panlabs Discovery Services (Taiwan)

[6] = molecular target: T6, Dopamine D2S (Homo sapiens, UniProt P14416); settings: Human recombinant, [^3H]Spiperone
T6 construct: purchased Eurofins Panlabs Discovery Services (Taiwan)

[7] = test system: GABAA, Muscimol, Central; settings: Rat brain (minus cerebellum), [^3H]Muscimol
[8] = molecular target: T7, Histamine H2 (Homo sapiens, UniProt P25021); settings: Human recombinant, [^125I]Aminopotentidine
T7 construct: purchased Eurofins Panlabs Discovery Services (Taiwan)

[9] = molecular target: T8, Histamine H3 (Homo sapiens, UniProt Q9Y5N1); settings: Human recombinant, [^3H]N-α-Methylhistamine
T8 construct: purchased Eurofins Panlabs Discovery Services (Taiwan)

[10] = molecular target: T9, Muscarinic M3 (Homo sapiens, UniProt P20309); settings: Human recombinant, [^3H]N-Methylscopolamine
T9 construct: purchased Eurofins Panlabs Discovery Services (Taiwan)

[11] = molecular target: T10, Neuropeptide Y Y2 (Homo sapiens, UniProt P49146); settings: Human KAN-TS cells, [^125I]Peptide YY
T10 construct: purchased Eurofins Panlabs Discovery Services (Taiwan)

[12] = test system: Phorbol Ester; settings: Mouse brain, [^3H]PDBu
[13] = molecular target: T11, Serotonin (5-Hydroxytryptamine) 5-HT1A (Homo sapiens, UniProt P08908); settings: Human recombinant, [^3H]8-OH-DPAT
T11 construct: purchased Eurofins Panlabs Discovery Services (Taiwan)

[14] = test system: Sodium Channel, Site 2; settings: Rat brain, [^3H]Batrachotoxinin
[15] = test system: Thyroid Hormone; settings: Rat liver, [^125I]Triiodothyronine
[16] = molecular target: T12, Transporter, Dopamine (DAT) (Homo sapiens, UniProt Q01959); settings: Human recombinant, [^125I]RTI-55
T12 construct: purchased Eurofins Panlabs Discovery Services (Taiwan)
T12 sequence (Q01959 whole entry): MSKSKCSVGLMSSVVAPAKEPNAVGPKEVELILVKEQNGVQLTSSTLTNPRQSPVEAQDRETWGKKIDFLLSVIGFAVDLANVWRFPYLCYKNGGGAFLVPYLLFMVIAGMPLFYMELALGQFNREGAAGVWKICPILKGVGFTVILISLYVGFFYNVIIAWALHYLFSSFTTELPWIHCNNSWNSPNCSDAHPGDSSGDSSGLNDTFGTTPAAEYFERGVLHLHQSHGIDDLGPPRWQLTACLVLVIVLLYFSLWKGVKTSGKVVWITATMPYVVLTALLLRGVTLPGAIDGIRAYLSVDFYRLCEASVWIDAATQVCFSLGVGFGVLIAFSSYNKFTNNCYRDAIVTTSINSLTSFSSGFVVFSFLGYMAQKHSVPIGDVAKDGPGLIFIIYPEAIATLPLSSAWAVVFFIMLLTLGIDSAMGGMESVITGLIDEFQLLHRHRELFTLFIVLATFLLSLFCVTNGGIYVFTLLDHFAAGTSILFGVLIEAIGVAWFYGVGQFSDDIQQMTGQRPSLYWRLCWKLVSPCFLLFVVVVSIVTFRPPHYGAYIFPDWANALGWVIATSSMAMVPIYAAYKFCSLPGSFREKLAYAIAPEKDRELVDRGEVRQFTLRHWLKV

T10 sequence (P49146 whole entry): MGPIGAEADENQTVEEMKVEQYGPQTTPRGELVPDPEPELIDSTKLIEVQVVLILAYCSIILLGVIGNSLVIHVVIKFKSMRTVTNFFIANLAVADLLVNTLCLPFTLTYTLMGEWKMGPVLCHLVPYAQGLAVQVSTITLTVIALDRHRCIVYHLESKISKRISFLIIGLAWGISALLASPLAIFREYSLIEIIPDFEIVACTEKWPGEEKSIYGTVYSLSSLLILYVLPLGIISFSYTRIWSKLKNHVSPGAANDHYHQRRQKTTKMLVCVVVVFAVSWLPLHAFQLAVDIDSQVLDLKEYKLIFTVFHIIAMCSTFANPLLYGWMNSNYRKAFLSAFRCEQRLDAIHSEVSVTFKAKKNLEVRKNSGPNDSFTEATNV
T3 sequence (P25100 whole entry): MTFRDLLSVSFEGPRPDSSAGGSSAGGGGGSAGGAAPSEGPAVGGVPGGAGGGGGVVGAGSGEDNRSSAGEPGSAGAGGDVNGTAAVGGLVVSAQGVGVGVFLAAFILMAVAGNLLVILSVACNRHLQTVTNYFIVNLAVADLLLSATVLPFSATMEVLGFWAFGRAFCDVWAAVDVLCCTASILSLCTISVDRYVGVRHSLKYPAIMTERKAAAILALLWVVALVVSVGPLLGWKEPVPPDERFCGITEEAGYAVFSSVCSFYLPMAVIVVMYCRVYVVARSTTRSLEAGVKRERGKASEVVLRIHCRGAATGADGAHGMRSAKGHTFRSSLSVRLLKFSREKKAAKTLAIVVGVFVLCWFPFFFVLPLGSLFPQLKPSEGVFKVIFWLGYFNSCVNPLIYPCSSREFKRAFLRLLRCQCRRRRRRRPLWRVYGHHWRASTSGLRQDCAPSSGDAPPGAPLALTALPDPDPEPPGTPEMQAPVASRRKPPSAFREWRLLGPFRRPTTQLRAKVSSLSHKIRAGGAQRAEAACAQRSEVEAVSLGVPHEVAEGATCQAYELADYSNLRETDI
T4 sequence (P08913 whole entry): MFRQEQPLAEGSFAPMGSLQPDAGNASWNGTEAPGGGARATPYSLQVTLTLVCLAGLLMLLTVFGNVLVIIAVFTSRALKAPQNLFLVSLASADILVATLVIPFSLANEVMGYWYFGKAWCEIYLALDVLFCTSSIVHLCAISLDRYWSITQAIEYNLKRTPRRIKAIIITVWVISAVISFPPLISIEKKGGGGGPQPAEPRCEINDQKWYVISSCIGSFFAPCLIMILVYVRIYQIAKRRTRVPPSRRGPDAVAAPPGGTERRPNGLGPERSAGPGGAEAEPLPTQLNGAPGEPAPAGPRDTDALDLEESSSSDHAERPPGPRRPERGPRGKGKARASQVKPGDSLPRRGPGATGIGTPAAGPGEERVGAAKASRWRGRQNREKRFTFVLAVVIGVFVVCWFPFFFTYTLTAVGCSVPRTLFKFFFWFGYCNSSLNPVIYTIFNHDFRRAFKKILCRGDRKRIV
T1 sequence (P0DMS8 whole entry): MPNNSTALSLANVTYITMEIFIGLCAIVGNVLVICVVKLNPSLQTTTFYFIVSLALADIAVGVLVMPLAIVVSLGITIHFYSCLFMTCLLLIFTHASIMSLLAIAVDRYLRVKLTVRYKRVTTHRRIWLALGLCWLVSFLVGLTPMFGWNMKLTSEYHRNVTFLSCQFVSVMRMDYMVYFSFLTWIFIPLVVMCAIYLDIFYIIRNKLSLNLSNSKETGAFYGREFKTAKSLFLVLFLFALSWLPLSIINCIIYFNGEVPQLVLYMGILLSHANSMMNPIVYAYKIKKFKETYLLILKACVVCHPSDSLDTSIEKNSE
T7 sequence (P25021 whole entry): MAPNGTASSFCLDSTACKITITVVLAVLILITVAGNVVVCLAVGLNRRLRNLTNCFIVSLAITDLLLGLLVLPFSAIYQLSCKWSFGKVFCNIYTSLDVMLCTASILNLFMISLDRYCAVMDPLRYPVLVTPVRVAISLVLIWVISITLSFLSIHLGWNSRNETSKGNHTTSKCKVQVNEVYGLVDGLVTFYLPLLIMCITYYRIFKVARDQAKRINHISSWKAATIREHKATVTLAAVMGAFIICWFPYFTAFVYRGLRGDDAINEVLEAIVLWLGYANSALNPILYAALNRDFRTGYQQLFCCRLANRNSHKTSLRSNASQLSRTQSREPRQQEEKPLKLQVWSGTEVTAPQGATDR
T8 sequence (Q9Y5N1 whole entry): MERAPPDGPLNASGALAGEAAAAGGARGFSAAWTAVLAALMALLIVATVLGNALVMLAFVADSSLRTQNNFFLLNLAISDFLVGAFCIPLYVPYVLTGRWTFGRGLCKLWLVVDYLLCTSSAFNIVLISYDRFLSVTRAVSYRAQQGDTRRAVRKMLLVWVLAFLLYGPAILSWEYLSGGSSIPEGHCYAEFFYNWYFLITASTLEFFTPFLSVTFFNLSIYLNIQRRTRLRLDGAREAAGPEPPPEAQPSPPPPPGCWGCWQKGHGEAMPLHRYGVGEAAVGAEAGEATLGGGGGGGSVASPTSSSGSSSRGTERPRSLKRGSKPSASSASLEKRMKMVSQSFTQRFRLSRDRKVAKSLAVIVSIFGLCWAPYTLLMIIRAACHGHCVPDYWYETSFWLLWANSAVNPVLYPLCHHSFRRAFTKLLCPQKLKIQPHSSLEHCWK
T11 sequence (P08908 whole entry): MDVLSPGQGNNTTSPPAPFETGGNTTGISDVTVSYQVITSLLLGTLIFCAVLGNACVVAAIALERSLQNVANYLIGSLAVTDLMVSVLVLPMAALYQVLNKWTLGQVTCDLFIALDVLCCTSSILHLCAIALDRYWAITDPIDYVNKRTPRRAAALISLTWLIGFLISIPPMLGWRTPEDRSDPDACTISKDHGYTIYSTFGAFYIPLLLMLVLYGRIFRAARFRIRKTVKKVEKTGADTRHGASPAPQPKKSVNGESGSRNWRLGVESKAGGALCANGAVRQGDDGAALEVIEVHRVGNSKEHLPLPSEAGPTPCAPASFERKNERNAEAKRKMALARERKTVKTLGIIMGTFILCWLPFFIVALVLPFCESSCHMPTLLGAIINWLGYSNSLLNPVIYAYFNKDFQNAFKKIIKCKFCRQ
T2 sequence (P43140 whole entry): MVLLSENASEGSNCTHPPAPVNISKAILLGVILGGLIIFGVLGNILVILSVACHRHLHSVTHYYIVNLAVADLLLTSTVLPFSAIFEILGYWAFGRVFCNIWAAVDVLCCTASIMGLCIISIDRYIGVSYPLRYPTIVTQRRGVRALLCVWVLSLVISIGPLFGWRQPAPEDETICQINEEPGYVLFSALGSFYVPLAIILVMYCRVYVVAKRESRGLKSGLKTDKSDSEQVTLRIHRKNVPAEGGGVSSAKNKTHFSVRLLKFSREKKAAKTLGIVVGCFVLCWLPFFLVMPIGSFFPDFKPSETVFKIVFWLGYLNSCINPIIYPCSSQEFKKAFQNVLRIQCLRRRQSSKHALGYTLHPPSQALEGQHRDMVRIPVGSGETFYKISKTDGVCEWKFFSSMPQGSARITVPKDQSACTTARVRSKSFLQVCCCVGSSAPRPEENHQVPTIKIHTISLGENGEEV
T9 sequence (P20309 whole entry): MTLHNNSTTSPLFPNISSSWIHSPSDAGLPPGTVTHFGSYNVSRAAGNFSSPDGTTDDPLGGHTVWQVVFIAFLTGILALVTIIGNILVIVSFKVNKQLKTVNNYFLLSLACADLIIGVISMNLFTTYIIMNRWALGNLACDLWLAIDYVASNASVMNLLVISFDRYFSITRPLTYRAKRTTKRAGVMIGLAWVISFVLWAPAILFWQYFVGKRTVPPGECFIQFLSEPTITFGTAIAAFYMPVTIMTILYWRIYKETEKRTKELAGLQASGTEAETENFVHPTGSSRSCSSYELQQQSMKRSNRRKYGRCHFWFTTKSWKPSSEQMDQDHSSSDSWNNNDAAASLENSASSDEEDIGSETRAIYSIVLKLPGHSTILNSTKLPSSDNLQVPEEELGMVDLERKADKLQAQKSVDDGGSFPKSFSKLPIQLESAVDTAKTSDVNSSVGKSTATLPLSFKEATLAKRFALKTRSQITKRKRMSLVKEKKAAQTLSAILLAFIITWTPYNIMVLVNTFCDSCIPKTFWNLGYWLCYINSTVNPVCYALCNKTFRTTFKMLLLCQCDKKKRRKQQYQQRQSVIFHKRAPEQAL

C[C@@H]1CC[C@H](C)N(c2nnc3c(N)ncc(C#N)n23)C1 (relative stereo) [MTP38, 8-amino-3-(2S*,5R*-dimethyl-1-piperidyl)-[1,2,4]triazolo[4,3-a]pyrazine-5-carbonitrile]
inhibition at 1 µM [1]: 10% | inhibition at 1 µM [2]: 8% | inhibition at 1 µM [3]: -3% | inhibition at 1 µM [4]: 4% | inhibition at 1 µM [5]: 1% | inhibition at 1 µM [6]: 4% | Inhibition (%) at 1 μM [7]: -10% | inhibition at 1 µM [8]: -9% | inhibition at 1 µM [9]: 9% | inhibition at 1 µM [10]: -21% | inhibition at 1 µM [11]: 6% | Inhibition (%) at 1 μM [12]: -7% | inhibition at 1 µM [13]: -5% | Inhibition (%) at 1 μM [14]: 1% | Inhibition (%) at 1 μM [15]: 7% | inhibition at 1 µM [16]: 22%
